Results on 29 compounds are retold here after US20230416248A1, “COMPOUNDS AND USES THEREOF” (Foghorn Therapeutics Inc., priority 2020, published 2023).

Like-named read-outs stand apart in the source and are kept apart here.

One assay addresses T1, BRG-1 (Homo sapiens, UniProt P51532).
T1 construct: made in house; host or cells: High Five insect cells
Nature of the assay: ATPase catalytic activity of BRG-1, ADP-Glo in vitro biochemical assay. Conditions: 30 nM BRG-1, 400 μM ATP, read-out: BRG1 IC50. The gist of the method:
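Biochemical ADP-Glo assay, BRG-1. Post-reaction: ATP depletion reagent, 40 min RT; ADP→ATP conversion/detection reagent, 60 min RT; luminescence read on plate luminometer.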
(ADP-Glo turns the ADP formed in a reaction into a luminescent signal.)

A further assay concerns the target T2, BRM (Homo sapiens, UniProt P51531).
T2 construct: made in house; host or cells: High Five insect cells
The assay is described as follows: ATPase catalytic activity of BRM, ADP-Glo in vitro biochemical assay. To be noted: for IC50: 30 nM BRM, 400 μM ATP; for Ratio* (BRG1 IC50 (μM) divided by BRM IC50 (μM)): selectivity ratio BRG1 IC50 / BRM IC50. The gist of the method: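 Recombinant BRM (30 nM) hydrolysed 400 μM ATP with 20 nM salmon sperm DNA in pH 8 Tris buffer containing 20 mM MgCl2, 50 mM NaCl, 0.1% Tween-20 and 1 mM DTT, 1 h at room temperature. ADP formed was quantified by ADP-Glo luminescence.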

Where [1] appears, read: ATPase catalytic activity, ADP-Glo.

T2 sequence (P51531 whole entry): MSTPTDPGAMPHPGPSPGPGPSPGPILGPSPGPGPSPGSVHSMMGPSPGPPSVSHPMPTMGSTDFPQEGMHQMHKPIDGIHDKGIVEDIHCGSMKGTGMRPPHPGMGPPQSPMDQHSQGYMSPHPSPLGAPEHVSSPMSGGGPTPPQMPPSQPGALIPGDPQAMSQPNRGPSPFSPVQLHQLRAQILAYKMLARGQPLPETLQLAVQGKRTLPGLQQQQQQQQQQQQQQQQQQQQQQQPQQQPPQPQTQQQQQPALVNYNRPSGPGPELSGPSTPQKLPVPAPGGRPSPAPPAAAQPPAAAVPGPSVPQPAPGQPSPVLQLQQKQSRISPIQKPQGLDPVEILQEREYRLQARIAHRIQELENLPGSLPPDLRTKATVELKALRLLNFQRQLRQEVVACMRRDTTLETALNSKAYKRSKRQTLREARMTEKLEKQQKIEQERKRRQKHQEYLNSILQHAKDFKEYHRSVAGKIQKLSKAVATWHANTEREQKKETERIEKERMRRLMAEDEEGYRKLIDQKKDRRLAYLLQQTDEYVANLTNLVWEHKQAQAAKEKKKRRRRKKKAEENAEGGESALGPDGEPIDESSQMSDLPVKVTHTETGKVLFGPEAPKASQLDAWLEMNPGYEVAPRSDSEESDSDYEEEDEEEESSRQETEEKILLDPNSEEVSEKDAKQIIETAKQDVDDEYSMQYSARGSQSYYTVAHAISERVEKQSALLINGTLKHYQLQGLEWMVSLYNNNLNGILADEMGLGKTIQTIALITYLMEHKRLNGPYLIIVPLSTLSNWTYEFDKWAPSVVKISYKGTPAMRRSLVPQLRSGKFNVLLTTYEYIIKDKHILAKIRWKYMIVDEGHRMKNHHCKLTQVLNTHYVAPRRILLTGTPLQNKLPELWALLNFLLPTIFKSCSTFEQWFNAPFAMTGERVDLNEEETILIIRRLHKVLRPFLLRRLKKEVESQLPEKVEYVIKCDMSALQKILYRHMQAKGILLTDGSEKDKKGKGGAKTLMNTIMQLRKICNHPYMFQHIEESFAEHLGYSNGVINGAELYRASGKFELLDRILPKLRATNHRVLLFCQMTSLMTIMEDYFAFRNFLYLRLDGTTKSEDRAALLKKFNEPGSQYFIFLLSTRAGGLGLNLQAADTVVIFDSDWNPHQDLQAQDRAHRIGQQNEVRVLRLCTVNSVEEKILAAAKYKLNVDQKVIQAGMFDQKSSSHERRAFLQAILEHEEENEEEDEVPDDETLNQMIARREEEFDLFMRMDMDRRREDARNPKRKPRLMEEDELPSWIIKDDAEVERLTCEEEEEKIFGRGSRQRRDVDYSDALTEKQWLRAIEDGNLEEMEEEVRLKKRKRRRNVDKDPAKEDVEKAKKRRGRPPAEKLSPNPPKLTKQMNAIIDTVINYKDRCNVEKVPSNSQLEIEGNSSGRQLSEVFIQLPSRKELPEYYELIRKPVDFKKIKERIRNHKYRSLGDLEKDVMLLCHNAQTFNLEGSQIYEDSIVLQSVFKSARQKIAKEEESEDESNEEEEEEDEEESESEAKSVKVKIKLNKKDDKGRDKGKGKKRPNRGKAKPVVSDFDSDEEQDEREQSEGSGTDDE
T1 sequence (P51532 whole entry): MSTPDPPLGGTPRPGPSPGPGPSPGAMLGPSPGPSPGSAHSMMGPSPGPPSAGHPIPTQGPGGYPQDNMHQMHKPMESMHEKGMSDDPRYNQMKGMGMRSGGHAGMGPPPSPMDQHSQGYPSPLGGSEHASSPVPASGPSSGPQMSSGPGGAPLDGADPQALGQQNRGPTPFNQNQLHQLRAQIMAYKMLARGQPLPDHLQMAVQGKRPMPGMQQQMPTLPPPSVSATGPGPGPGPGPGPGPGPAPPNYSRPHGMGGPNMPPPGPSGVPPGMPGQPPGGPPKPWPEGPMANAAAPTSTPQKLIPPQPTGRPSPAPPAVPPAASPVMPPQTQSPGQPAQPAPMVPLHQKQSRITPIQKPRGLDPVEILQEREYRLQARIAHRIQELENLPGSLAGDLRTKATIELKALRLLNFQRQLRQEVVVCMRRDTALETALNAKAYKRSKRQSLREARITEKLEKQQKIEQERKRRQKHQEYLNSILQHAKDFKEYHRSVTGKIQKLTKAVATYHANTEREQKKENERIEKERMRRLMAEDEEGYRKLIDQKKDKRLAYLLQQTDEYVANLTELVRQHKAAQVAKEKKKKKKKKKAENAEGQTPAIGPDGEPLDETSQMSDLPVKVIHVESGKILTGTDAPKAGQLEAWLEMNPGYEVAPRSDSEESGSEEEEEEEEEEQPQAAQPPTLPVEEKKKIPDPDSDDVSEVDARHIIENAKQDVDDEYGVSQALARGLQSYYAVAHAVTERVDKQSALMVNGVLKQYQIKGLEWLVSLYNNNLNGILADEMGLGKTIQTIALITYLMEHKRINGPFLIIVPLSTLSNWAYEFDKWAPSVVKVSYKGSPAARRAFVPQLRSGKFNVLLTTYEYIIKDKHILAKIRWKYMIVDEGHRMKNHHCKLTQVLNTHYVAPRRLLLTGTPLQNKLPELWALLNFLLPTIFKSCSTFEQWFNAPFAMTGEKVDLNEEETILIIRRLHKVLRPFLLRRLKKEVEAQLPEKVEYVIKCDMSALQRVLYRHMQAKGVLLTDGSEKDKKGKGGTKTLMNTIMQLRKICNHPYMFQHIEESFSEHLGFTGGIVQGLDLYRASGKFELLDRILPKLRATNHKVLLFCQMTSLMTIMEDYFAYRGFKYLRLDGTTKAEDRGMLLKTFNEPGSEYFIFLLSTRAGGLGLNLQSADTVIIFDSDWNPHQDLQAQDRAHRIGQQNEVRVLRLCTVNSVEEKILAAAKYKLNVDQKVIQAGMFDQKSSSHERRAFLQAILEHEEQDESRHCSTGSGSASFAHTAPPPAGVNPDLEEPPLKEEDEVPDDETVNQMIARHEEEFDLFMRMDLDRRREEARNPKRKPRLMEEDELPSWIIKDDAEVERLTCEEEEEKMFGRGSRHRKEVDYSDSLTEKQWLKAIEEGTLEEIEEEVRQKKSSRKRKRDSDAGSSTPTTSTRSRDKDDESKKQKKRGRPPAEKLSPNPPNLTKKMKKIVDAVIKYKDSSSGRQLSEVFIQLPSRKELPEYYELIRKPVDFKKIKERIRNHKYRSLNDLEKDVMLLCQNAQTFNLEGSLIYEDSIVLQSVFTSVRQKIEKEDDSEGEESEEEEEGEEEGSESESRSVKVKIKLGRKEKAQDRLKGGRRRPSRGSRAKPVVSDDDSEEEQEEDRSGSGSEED

Consider `C[C@@H]1CN(c2cccc(-c3ccc4cnc(CNC(=O)c5cnc6c(c5)S(=O)(=O)CCCC6(F)F)cc4n3)n2)C[C@H](C)O1` [Compound 407], for which the IC50 (commonly the concentration needed to halve the response being measured) on BRG-1 (setting [1]) turned out to be 58.6 nM; against BRM (setting [1]) it was 12.5 nM. Also, at BRM (ratio of BRG1 IC50 to BRM IC50), the “Ratio*” value was determined as 4.69.
Consider `O=C(NCc1cc2nc(-c3cncc(C4CC4)n3)ccc2cn1)c1cc(F)c2c(c1)S(=O)(=O)CCOC2` [Compound 287], for which the IC50 at BRG-1 (ADP-Glo ATPase assay) came to 594 nM; on BRM (ADP-Glo ATPase assay), 24.2 nM. Also, the “Ratio* (BRG1 IC50 (μM) divided by BRM IC50 (μM))” value on BRM worked out at 24.53.
`CO[C@H](C)c1cccc(-c2ccc3cnc(CNC(=O)c4ccc5c(c4)S(=O)(=O)CCOC5)cc3n2)n1` [Compound 68]: the 50% inhibitory concentration (IC50) came out at 4930 nM on BRG-1 (ADP-Glo ATPase assay) and 433 nM against BRM (ADP-Glo ATPase assay). The “Ratio* (BRG1 IC50 (μM) divided by BRM IC50 (μM))” value on BRM worked out at 11.38.
Consider `C[C@@H]1CCS(=O)(=O)c2cc(C(=O)NCc3cc4nc(-c5cccc(N6C[C@@H](C)O[C@@H](C)C6)n5)ccc4cn3)cc(F)c2O1` [Compound 494], for which the IC50 amounted to 98.5 nM at BRG-1 (setting [1]) and 22.4 nM against BRM (setting [1]). For the same compound, the “Ratio*” value at BRM (ratio of BRG1 IC50 to BRM IC50) worked out at 4.39.
With `Cn1cnc2c(-c3ccc4cnc(CNC(=O)c5ccc6c(c5)S(=O)(=O)CCOC6)cc4n3)cccc21` [Compound 234], the results for the IC50 on BRG-1 (ADP-Glo ATPase assay) and against BRM (ADP-Glo ATPase assay) were 1520 nM and 188 nM, respectively. Moreover, at BRM, the “Ratio* (BRG1 IC50 (μM) divided by BRM IC50 (μM))” value came to 8.09.
In the case of `COC[C@@H]1C[C@@H]1N(C)c1cccc(-c2ccc3cnc(CNC(=O)c4ccc5c(c4)S(=O)(=O)CCOC5)cc3n2)n1` [Compound 413], the 50% inhibitory concentration (IC50) on BRG-1 (setting [1]) turned out to be 210 nM; against BRM (setting [1]), 12.9 nM. On BRM (ratio of BRG1 IC50 to BRM IC50), the “Ratio*” value is on record as 16.27.
In the case of `C[C@@H]1CN(c2cccc(-c3ccc4cnc(CNC(=O)c5cnc6c(c5)S(=O)(=O)CCC5CC65)cc4n3)n2)C[C@H](C)O1` (mixture of isomers) [Compound 528], the half-inhibitory concentration (IC50) is 33.6 nM at BRG-1 (setting [1]) and 7.9 nM on BRM (setting [1]). The “Ratio*” value at BRM (ratio of BRG1 IC50 to BRM IC50) came out at 4.24.
Consider `O=C(NCc1cc2nc(N3CCC4(CCC4)c4cccnc43)ccc2cn1)c1ccc2c(c1)S(=O)(=O)CCOC2` [Compound 723], for which the figures for the IC50 on BRG-1 (ADP-Glo ATPase assay) and against BRM (ADP-Glo ATPase assay) were 667 nM and 40.2 nM, respectively. The “Ratio*” value at BRM (ratio BRG1 IC50 / BRM IC50) was found to be 16.58.
On to `COc1ccc(F)c2c1CCCN2c1ccc2cnc(CNC(=O)c3ccc4c(c3)S(=O)(=O)CCOC4)cc2n1` [Compound 718], for which the values for the IC50 on BRG-1 (ADP-Glo ATPase assay) and at BRM (ADP-Glo ATPase assay) were 99.6 nM and 10.5 nM, respectively. In addition, the “Ratio*” value at BRM (ratio BRG1 IC50 / BRM IC50) is recorded as 9.44.
With `C[C@]1(F)CCCN(c2cccc(-c3ccc4cnc(CNC(=O)c5ccc6c(c5)S(=O)(=O)CCOC6)cc4n3)n2)C1` [Compound 317], the IC50 at BRG-1 (setting [1]) was 34.8 nM; against BRM (setting [1]) it was 6.3 nM. In addition, the “Ratio*” value on BRM (ratio of BRG1 IC50 to BRM IC50) was 5.55.
Regarding `Cc1c(C2CC2)cnc2c1OCCN2c1ccc2cnc(CNC(=O)c3ccc4c(c3)S(=O)(=O)CCOC4)cc2n1` [Compound 784], the IC50 on BRG-1 (ADP-Glo ATPase assay) stood at 212 nM; against BRM (ADP-Glo ATPase assay), 24.6 nM. In addition, the “Ratio*” value on BRM (ratio BRG1 IC50 / BRM IC50) is 8.62.
As for `O=C(NCc1cc2nc(N3CCOc4c3ncc(C3CC3)c4F)ccc2cn1)c1ccc2c(c1)S(=O)(=O)CCOC2` [Compound 827], the concentration for half-maximal inhibition (IC50) on BRG-1 (ADP-Glo ATPase assay) was 153 nM; against BRM (ADP-Glo ATPase assay), 13.1 nM. In addition, the “Ratio*” value on BRM (ratio BRG1 IC50 / BRM IC50) was determined as 11.63.
Take `COCCn1cc2c(-c3ccc4cnc(CNC(=O)c5ccc6c(c5)S(=O)(=O)CCOC6)cc4n3)cccc2n1` [Compound 673]: the IC50 was 4990 nM at BRG-1 (setting [1]) and 568 nM at BRM (setting [1]). The “Ratio*” value at BRM (ratio of BRG1 IC50 to BRM IC50) is reported as 8.79.
For the compound `O=C(NCc1cc2nc(N3CCCc4c(C(F)F)ccnc43)ccc2cn1)c1ccc2c(c1)S(=O)(=O)CCOC2` [Compound 521], the values for the IC50 on BRG-1 (setting [1]) and against BRM (setting [1]) were 424 nM and 59.7 nM, respectively. In addition, the “Ratio*” value at BRM (ratio of BRG1 IC50 to BRM IC50) is 7.10.
For `CS(=O)(=O)c1cncc(C(=O)NCc2cc3nc(-c4cncc(C5CC5)n4)ccc3cn2)c1` [Compound 306], the IC50 at BRG-1 (ADP-Glo ATPase assay) amounted to 4250 nM; against BRM (ADP-Glo ATPase assay) it was 855 nM. The “Ratio* (BRG1 IC50 (μM) divided by BRM IC50 (μM))” value on BRM is given as 4.98.
Consider `C[C@H]1COCCN1c1cccc(-c2ccc3cnc(CNC(=O)c4ccc5c(c4)S(=O)(=O)CCOC5)cc3n2)n1` [Compound 178], for which the IC50 came out at 1390 nM on BRG-1 (ADP-Glo ATPase assay) and 180 nM on BRM (ADP-Glo ATPase assay). For the same compound, the “Ratio* (BRG1 IC50 (μM) divided by BRM IC50 (μM))” value at BRM came out at 7.72.
Turning to `CN(c1ccccn1)c1ccc2cnc(CNC(=O)c3ccc4c(c3)S(=O)(=O)CCOC4)cc2n1` [Compound 108], the concentration for half-maximal inhibition (IC50) on BRG-1 (ADP-Glo ATPase assay) came out at 5000 nM; at BRM (ADP-Glo ATPase assay), 672 nM. The “Ratio* (BRG1 IC50 (μM) divided by BRM IC50 (μM))” value at BRM was found to be 7.43.
The corresponding values for `O=C(NCc1cc2nc(-c3cncc(C4CC4)n3)ccc2cn1)c1cnc2c(c1)S(=O)(=O)CCCC2` [Compound 230] are 399 nM, 41.6 nM and 9.60.
For `O=C(NCc1cc2nc(N3CCOc4ccc(C5CC5)c(F)c43)ccc2cn1)c1ccc2c(c1)S(=O)(=O)CCOC2` [Compound 760], the IC50 on BRG-1 (ADP-Glo ATPase assay) came out at 62.2 nM; against BRM (ADP-Glo ATPase assay), 8.8 nM. The “Ratio*” value on BRM (ratio BRG1 IC50 / BRM IC50) is 7.05.
For the compound `O=C(NCc1cc2nc(N3CCOc4cc(Cl)cnc43)ccc2cn1)c1ccc2c(c1)S(=O)(=O)CCOC2` [Compound 645], the IC50 amounted to 170 nM at BRG-1 (setting [1]) and 9.8 nM at BRM (setting [1]). In addition, the “Ratio*” value at BRM (ratio of BRG1 IC50 to BRM IC50) is reported as 17.38.
As to `O=C(NCc1cc2cc(N3CCOc4cc(N5CCOCC5)cnc43)ccc2cn1)c1ccc2c(c1)S(=O)(=O)CCOC2` [Compound 798], the IC50 stood at 43.8 nM on BRG-1 (ADP-Glo ATPase assay) and 7.4 nM against BRM (ADP-Glo ATPase assay). The “Ratio*” value at BRM (ratio BRG1 IC50 / BRM IC50) stood at 5.90.
On to `COc1cc(Cl)ccc1-c1ccc2cnc(CNC(=O)c3ccc4c(c3)S(=O)(=O)[C@@H](C)COC4)cc2n1` [Compound 386], for which the results for the IC50 on BRG-1 (setting [1]) and on BRM (setting [1]) were 140 nM and 9.2 nM, respectively. The “Ratio*” value on BRM (ratio of BRG1 IC50 to BRM IC50) is on record as 15.24.
Turning to `COC1CN(c2cccc(-c3ccc4cnc(CNC(=O)c5ccc6c(c5)S(=O)(=O)CCOC6)cc4n3)n2)C1` [Compound 228], the IC50 on BRG-1 (ADP-Glo ATPase assay) was found to be 282 nM; on BRM (ADP-Glo ATPase assay) it was 20.5 nM. Moreover, the “Ratio* (BRG1 IC50 (μM) divided by BRM IC50 (μM))” value at BRM amounted to 13.77.
As for `O=C(NCc1cc2nc(N3CCOc4cnc(C5CC5)cc43)ccc2cn1)c1ccc2c(c1)S(=O)(=O)CCOC2` [Compound 755], the figures for the IC50 on BRG-1 (ADP-Glo ATPase assay) and against BRM (ADP-Glo ATPase assay) were 124 nM and 7.1 nM, respectively. Further, the “Ratio*” value on BRM (ratio BRG1 IC50 / BRM IC50) worked out at 17.47.
As for `CO[C@H]1CN(c2cccc(-c3ccc4cnc(CNC(=O)c5ccc6c(c5)S(=O)(=O)CCOC6)cc4n3)n2)C[C@H]1F` [Compound 332], the half-maximal inhibitory concentration (IC50) on BRG-1 (setting [1]) amounted to 224 nM; against BRM (setting [1]), 16.6 nM. The “Ratio*” value at BRM (ratio of BRG1 IC50 to BRM IC50) is reported as 13.49.
For `COC1(CN(C)c2cccc(-c3ccc4cnc(CNC(=O)c5ccc6c(c5)S(=O)(=O)CCOC6)cc4n3)n2)CC1` [Compound 323] the same measures were 230 nM, 17.1 nM and 13.46.
For `O=C(NCc1cc2cc(N3CCOc4ccc(C5CC5)cc43)ccc2cn1)c1ccc2c(c1)S(=O)(=O)CCOC2` [Compound 787], the IC50 on BRG-1 (ADP-Glo ATPase assay) worked out at 194 nM; against BRM (ADP-Glo ATPase assay) it was 13.5 nM. In addition, the “Ratio*” value at BRM (ratio BRG1 IC50 / BRM IC50) turned out to be 14.38.
Consider `CO[C@H]1C[C@H]1N(C)c1cccc(-c2ccc3cnc(CNC(=O)c4ccc5c(c4)S(=O)(=O)[C@@H](C)COC5)cc3n2)n1` [Compound 669], for which the IC50 came out at 324 nM on BRG-1 (setting [1]) and 17.1 nM at BRM (setting [1]). Moreover, the “Ratio*” value at BRM (ratio of BRG1 IC50 to BRM IC50) stood at 18.96.
For `C[C@@H]1CN(c2cccc(-c3ccc4cnc(CNC(=O)c5cc(F)c6c(c5)S(=O)(=O)CCO[C@@H]6C)cc4n3)n2)C[C@H](C)O1` [Compound 516] the same measures were 85 nM, 12.2 nM and 6.98.
